Test results taken from US8722930B2, “Protease inhibitors” (Orion Corporation, priority 2009, dated 2014).
Like-named read-outs stand apart in the source and are kept apart here.

Experiments:
DU145 cells [1] = assay: Migration assay in transwell chambers; assay type: cell-based; details: Homo sapiens, DU-145, 24 hours
Method: Migration assays were performed to determine the effect of matriptase inhibitors on cell motility. Cells were seeded with 10 μM test compound into transwell chambers and allowed to migrate for 24 hours using a combination of 10% FBS and 5 μg/ml fibronectin as chemoattractant.

DU145 cells [2] = assay: Cytotoxicity, Calcein AM assay, DU145; assay type: cell-based; details: Homo sapiens, DU-145, 96 h, four days of incubation, read-out: Cell survival at 10 μM (%)
Method: Cytotoxicity of the compounds was tested in cell lines or primary cells using Calcein AM assay. This assay measures cell viability by quantitation of cleaved fluorescent product of a cell permeable substrate that is retained in the cytoplasm of cells with uncompromised cytoplasmic membrane integrity. The cells were seeded into 96-well plate and allowed to adhere for a day followed by addition of compound at several different concentrations. After four days of incubation with the compound, media was removed from the cells followed by addition of PBS and addition of Calcein AM reagent at 1 μM final concentration. The cells were then allowed to incubate at 37° C. for half an hour followed by reading on the fluorimeter. Percent viability was calculated based on fluorescence value obtained at 485/520 nm with cut off at 495 nm.

DU145 cells [3] = assay: Cell invasion assay (matrigel transwell); assay type: cell-based; details: Homo sapiens, DU-145, 48 hours
Method: Cell invasion assays were done for quantitating the degree to which invasive cells penetrate a barrier essentially as in migration assay but with the use of matrigel consisting of basement membrane components in the transwell inserts and incubating for 48 hours. The barrier used was matrigel. This was followed by fixing and staining of the transwell insert with 0.5% crystal violet in 25% methanol in order to visualize cells migrated.

[4] = target: T1, Purified recombinant matriptase (Homo sapiens, UniProt Q9Y5Y6); assay: Matriptase fluorescence-based enzymatic assay (Boc-Gln-Ala-Arg-AMC cleavage); assay type: biochemical
T1 sequence (Q9Y5Y6 1-855): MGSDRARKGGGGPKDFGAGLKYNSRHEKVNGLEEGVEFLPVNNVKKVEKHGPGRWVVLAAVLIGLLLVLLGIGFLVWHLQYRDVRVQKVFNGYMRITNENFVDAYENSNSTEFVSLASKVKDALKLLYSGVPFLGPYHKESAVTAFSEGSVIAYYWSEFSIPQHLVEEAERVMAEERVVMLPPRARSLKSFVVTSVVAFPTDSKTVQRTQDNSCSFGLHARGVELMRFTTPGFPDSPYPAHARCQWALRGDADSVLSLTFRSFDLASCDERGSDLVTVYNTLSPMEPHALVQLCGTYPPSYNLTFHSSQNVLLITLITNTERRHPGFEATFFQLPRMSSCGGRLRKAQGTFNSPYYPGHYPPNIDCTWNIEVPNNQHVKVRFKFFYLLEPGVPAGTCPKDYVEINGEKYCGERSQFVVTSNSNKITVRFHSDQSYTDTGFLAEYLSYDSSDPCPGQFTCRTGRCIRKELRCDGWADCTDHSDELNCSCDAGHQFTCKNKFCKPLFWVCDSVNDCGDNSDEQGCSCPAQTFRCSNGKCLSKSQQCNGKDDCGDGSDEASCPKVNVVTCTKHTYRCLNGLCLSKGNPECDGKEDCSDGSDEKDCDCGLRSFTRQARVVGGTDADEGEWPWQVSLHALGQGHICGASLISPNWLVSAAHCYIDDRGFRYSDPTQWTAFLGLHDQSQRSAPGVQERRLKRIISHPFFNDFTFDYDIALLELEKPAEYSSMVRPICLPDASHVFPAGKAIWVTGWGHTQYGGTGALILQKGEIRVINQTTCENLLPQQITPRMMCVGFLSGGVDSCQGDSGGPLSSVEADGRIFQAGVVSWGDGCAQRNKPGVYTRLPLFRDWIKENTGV
Excerpt: (§1) Purified recombinant matriptase was used in a fluorescence-based screening assay using Gln-Ala-Arg peptide as a substrate. In this assay the cleavage of AMC from Boc-Gln-Ala-Arg-7-amido-4 methylcoumarin hydrochloride (Boc-Gln-Ala-Arg-AMC) (Sigma, USA) was monitored by measuring the increase in fluorescence intensity of AMC released upon proteolytic cleavage at 480 nm (kex=360 nm). Similarly, enzymatic assays in fluorimetric or colorimetric format for uPA, Factor Xa, thrombin, plasmin and trypsin (Sigma, USA) were established using substrates pyroGlu-Gly-Arg-pNA.HCl, Boc-Gln-Ala-Arg-AMC, CH3OCO-D-CHA-Gly-Arg-PNA.AcoH, Pyro Glu-Phe-Lys—pNA.HCl and Boc-Gln-Ala-Arg-AMC, respectively.

trypsin = assay: Trypsin enzymatic assay (selectivity screening); assay type: biochemical; details: % Inhibition at 5 μM
Excerpt: as §1

thrombin = target: T2, thrombin (Homo sapiens, UniProt P00734); assay: Thrombin enzymatic assay (selectivity screening); assay type: biochemical
T2 construct: uPA, Factor Xa, thrombin, plasmin and trypsin (Sigma, USA); purchased Sigma, USA
Excerpt: as §1

uPA = target: T3, uPA (Homo sapiens, UniProt P00749); assay: uPA enzymatic assay (selectivity screening); assay type: biochemical
T3 construct: purchased Sigma, USA
Excerpt: as §1

plasmin = target: T4, plasmin (Homo sapiens, UniProt P00747); assay: Plasmin enzymatic assay (selectivity screening); assay type: biochemical
T4 construct: uPA, Factor Xa, thrombin, plasmin and trypsin (Sigma, USA); purchased Sigma, USA
T4 sequence (P00747 581-810 limits assumed, species assumed): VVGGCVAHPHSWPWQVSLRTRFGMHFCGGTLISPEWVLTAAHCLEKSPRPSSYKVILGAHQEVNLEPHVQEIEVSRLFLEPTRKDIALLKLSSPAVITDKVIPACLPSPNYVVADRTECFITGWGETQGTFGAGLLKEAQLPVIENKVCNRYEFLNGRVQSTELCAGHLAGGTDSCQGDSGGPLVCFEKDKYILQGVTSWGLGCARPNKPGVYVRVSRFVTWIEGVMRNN
T4 sequence (P00747 97-580 partner limits assumed, species assumed): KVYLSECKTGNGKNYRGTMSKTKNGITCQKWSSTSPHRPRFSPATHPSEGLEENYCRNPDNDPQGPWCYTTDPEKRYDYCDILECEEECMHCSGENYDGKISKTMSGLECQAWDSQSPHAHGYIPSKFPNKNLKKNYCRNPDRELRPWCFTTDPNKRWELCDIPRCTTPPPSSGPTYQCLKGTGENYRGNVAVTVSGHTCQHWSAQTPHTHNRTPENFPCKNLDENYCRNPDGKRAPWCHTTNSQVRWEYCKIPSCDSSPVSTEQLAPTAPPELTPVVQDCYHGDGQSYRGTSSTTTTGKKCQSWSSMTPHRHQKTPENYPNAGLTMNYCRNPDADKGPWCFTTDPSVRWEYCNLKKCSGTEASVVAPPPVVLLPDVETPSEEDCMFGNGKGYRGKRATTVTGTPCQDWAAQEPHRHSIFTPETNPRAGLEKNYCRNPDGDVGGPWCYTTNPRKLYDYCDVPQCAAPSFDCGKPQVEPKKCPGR
Excerpt: as §1

Factor Xa = target: T5, Factor Xa (Homo sapiens, UniProt P00742); assay: Factor Xa enzymatic assay (selectivity screening); assay type: biochemical
T5 construct: uPA, Factor Xa, thrombin, plasmin and trypsin (Sigma, USA); purchased Sigma, USA
T5 sequence (P00742 235-488 limits assumed): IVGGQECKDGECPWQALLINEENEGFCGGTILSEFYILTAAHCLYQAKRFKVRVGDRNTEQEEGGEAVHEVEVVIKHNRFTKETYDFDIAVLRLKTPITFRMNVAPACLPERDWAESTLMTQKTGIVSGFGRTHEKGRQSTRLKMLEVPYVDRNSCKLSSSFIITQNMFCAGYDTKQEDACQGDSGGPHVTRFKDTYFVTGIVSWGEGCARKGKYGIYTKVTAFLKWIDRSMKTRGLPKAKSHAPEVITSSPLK
T5 sequence (P00742 41-179 partner limits assumed): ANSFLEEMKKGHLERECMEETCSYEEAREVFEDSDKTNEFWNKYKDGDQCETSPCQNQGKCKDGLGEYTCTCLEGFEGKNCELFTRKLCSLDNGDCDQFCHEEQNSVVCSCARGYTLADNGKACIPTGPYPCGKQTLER
Excerpt: as §1

DU145 cells [5] = assay: Soft agar colony formation assay; assay type: cell-based; details: Homo sapiens, DU-145, 504 h, about three weeks, read-out: EC50 for inhibition of soft agar colony formation
Method: Soft agar colony formation assays were performed to measure the long-term survival and anchorage-independent growth capacity of tumor cells. DU145 cells were seeded in 0.7% nutrient agar with the test compound on an underlay of 1.4% nutrient agar in a six well plate. On the day following cell seeding, liquid cell culture medium containing the compound was added to the well to prevent the agar from drying out and was changed regularly till the completion of the experiment. The cells were allowed to form colonies for a period of about three weeks following which the colonies were stained with 0.005% solution of crystal violet in 25% methanol. The colonies were counted under a dissecting microscope.

[6] = Maximum tolerated dose (MTD) study; assay type: in vivo; details: 14 days, male athymic mice
Method: An MTD study was performed for the compound of Example 27. […] The compound was administered at 1, 3, 10 and 30 mg/kg once daily in male athymic mice via subcutaneous route in 5 mice each. […]

PC3 cells = assay: PC3 xenograft model; assay type: in vivo; details: for Tumor growth inhibition (%): PC3 model, 21 days
Method: (§2) In order to determine the in vivo efficacy, xenograft models were established by injecting 5×10^6 DU145 cells with matrigel or 5×10^6 PC3 cells without matrigel subcutaneously. Once the tumors reached palpable size (˜80 mm3), compound of Example 27 was administered in a vehicle comprising of 2% ethanol, 10% hydroxyl cyclodextrin in 0.9% saline. The compound of Example 27 was dosed subcutaneously to animals with DU145 tumors at 1.5, 5 and 15 mg/kg for 15 days. In the PC3 xenograft study, compound of Example 27 was administered at 0.5, 1.5, 5.0 and 15.0 mg/kg daily.

DU145 tumors = assay: DU145 xenograft model; assay type: in vivo; details: for Tumor growth inhibition (%): DU145 model, 15 days
Method: as §2

[7] = Table 1, read-out: Matriptase Inhibition IC50
[8] = Table 2, read-out: Matriptase IC50
[9] = 1, 3, 10 and 30 mg/kg once daily subcutaneous

| IC50 [4, 7] [nM] | IC50 [4, 8] [nM] | inhibition at 5 µM (thrombin) [%] | inhibition at 5 µM (uPA) [%] | inhibition at 5 µM (plasmin) [%] | inhibition at 5 µM (Factor Xa) [%] | EC50 (DU145 cells [5]) [nM] | Compound | inhibition at 10 µM (DU145 cells [1]) [%] | viability at 10 µM (DU145 cells [2]) [%] | inhibition at 10 µM (DU145 cells [3]) [%] | Trypsin Inhibition (%) (trypsin) | also measured |
| --- | --- | --- | --- | --- | --- | --- | --- | --- | --- | --- | --- | --- |
| 13.2 | 13 | 33 | 11 | 10 | 86 |  | Cc1cc(Oc2cc(Oc3ccc(C(=N)N)cc3)cc(C(=O)NC3CCC(N)CC3)c2)ccc1C(=N)N (centres unmarked) [Example 74, N-(4-Aminocyclohexyl)-3-(4-carbamimidoyl-3-methylphenoxy)-5-(4-carbamimidoylphenoxy)benzamide] | 18 | 95 | 45 | 28 |  |
| 379 | 122 | 41 | 23 | 25 | 52 | 700 | N=C(N)c1ccc(Oc2cc(OCc3ccc(Br)cc3)cc(C(=O)NC3CCC(N)CC3)c2)cc1 (centres unmarked) [Example 51, N-(4-Aminocyclohexyl)-3-(4-bromobenzyloxy)-5-(4-carbamimidoylphenoxy)benzamide] | -4 | 93 | 61 |  |  |
| 38 | 38 | 3 | -1 | 18 | 71 | 900 | N=C(N)c1ccc(Oc2cc(OCc3cccc(CN)c3)cc(C(=O)NC3CCC(N)CC3)c2)cc1 (centres unmarked) [Example 47, N-(4-Aminocyclohexyl)-3-(3-aminomethylbenzyloxy)-5-(4-carbamimidoylphenoxy)benzamide] | 39 | 100 | 63 |  |  |
| 35 | 35 | 70 | 7 | 42 | 73 | 100 | N=C(N)c1ccc(COc2cc(Oc3ccc(C(=N)N)cc3)cc(C(=O)N3CCC(CCN)CC3)c2)cc1 [Example 58, 2-{1-[3-(4-carbamimidoyl-benzyloxy)-5-(4-carbamimidoyl-phenoxy)benzoyl]-piperidin-4-yl}ethylamine] | 63 | 100 | 91 |  |  |

| Compound | IC50 [4, 7] [nM] | IC50 [4, 8] [nM] | inhibition at 5 µM (thrombin) [%] | inhibition at 5 µM (uPA) [%] | inhibition at 5 µM (plasmin) [%] | inhibition at 5 µM (Factor Xa) [%] | EC50 (DU145 cells [5]) [nM] | inhibition at 10 µM (DU145 cells [1]) [%] | viability at 10 µM (DU145 cells [2]) [%] | inhibition at 10 µM (DU145 cells [3]) [%] | Trypsin Inhibition (%) (trypsin) | also measured |
| --- | --- | --- | --- | --- | --- | --- | --- | --- | --- | --- | --- | --- |
| [H]/N=C(\N)c1ccc(Oc2cc(Oc3ccc(/C(N)=N/[H])cc3)cc(C(=O)NC3CCC(N)CC3)c2)cc1 (centres unmarked) [Example 27, N-(4-Amino-cyclohexyl)-3,5-bis-(4-carbamimidoyl-phenoxy)-benzamide] | 17 | 17 | 41 | 14 | 33 | 83 | 200 | 88 | 100 | 79 | 61 | Body weight reduction [6, 9]: less than 2%; Clinical signs [6, 9]: no gross changes in clinical signs; Mortality [6, 9]: did not show any mortality; Tolerability ([6]; doses up to 30 mg/kg once daily subcutaneous): well tolerated; Tumor growth inhibition (%) (PC3 cells; 0.5 mg/kg daily): 14%; Tumor growth inhibition (%) (PC3 cells; 1.5 mg/kg daily): 44%; Tumor growth inhibition (%) (PC3 cells; 5 mg/kg daily): 65%; Tumor growth inhibition (%) (PC3 cells; 15 mg/kg daily): 62%; Inhibition of tumor growth (in words) (PC3 cells; PC3 xenograft study): significant and dose-dependent inhibition of tumor growth; Tumor growth inhibition (%) (DU145 tumors; 1.5 mg/kg subcutaneously): 61.2%; Tumor growth inhibition (%) (DU145 tumors; 5 mg/kg subcutaneously): 84.5%; Tumor growth inhibition (%) (DU145 tumors; 15 mg/kg subcutaneously): 75%; Reduction in tumor volume (in words) (DU145 tumors; DU145 xenograft study): significant reduction in tumor volume |
| N=C(N)c1ccc(Oc2cc(C(=O)NC3CCC(N)CC3)cc(Oc3ccc(C(=N)N)cc3)n2)cc1 (centres unmarked) [Example 13, N-(4-Amino-cyclohexyl)-2,6-bis-(4-carbamimidoyl-phenoxy)-isonicotinamide] |  |  | 28 | 13 | 33 | 84 | 500 |  |  |  | 92 | IC50 [4]: 20 nM |
| N=C(N)c1ccc(Oc2cc(NC(=O)C3CCN(CCO)CC3)cc(Oc3ccc(C(=N)N)cc3)c2)cc1 [Example 111, 1-(2-Hydroxy-ethyl)-piperidine-4-carboxylic acid[3,5-bis-(4-carbamimidoyl-phenoxy)-phenyl]-amide] | 29 |  |  |  |  |  |  |  |  |  | 63 | Thrombin Inhibition (%) (thrombin; % Inhibition at 5 μM): 44%; uPA Inhibition (%) (uPA; % Inhibition at 5 μM): 17%; Plasmin Inhibition (%) (plasmin; % Inhibition at 5 μM): 46%; Factor Xa Inhibition (%) (Factor Xa; % Inhibition at 5 μM): 74% |
